Test results reported in patent publication US20260217683A1, “PYRIDAZINONE HETEROCYCLIC COMPOUND MYOSIN II INHIBITOR AND USE THEREOF” (Xizang Haisco Pharmaceutical Co., Ltd., priority 2023, published 2026).
Where two headings read alike, the source gives them in different places.

Experiments:
[1] = test system: rabbit skeletal muscle myosin; test: Inhibition of hydrolysis of ATP by rabbit skeletal muscle myosin; assay type: biochemical
Outline: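 Actin-activated ATPase: F-actin plus rabbit skeletal myosin II with compound in Tris-HCl pH 7.5/KCl/EGTA/MgCl2, started with ATP (3 mM working stock) and run 60 min at 37 °C. Released Pi measured by CytoPhos absorbance at 650 nm against a phosphate standard curve; IC50 fitted from inhibition relative to uninhibited myosin.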

[2] = target: T1, hERG potassium ion channel (Homo sapiens, UniProt Q12809); test: Effect on hERG potassium ion channel (manual patch-clamp, CHO cells); assay type: cell-based; conditions: CHO cells stably expressing hERG, whole cell patch-clamp; read-out: IC50 of the inhibitory effect on hERG potassium channel current
T1 construct: expressed in transfected cells
T1 sequence (Q12809 whole entry): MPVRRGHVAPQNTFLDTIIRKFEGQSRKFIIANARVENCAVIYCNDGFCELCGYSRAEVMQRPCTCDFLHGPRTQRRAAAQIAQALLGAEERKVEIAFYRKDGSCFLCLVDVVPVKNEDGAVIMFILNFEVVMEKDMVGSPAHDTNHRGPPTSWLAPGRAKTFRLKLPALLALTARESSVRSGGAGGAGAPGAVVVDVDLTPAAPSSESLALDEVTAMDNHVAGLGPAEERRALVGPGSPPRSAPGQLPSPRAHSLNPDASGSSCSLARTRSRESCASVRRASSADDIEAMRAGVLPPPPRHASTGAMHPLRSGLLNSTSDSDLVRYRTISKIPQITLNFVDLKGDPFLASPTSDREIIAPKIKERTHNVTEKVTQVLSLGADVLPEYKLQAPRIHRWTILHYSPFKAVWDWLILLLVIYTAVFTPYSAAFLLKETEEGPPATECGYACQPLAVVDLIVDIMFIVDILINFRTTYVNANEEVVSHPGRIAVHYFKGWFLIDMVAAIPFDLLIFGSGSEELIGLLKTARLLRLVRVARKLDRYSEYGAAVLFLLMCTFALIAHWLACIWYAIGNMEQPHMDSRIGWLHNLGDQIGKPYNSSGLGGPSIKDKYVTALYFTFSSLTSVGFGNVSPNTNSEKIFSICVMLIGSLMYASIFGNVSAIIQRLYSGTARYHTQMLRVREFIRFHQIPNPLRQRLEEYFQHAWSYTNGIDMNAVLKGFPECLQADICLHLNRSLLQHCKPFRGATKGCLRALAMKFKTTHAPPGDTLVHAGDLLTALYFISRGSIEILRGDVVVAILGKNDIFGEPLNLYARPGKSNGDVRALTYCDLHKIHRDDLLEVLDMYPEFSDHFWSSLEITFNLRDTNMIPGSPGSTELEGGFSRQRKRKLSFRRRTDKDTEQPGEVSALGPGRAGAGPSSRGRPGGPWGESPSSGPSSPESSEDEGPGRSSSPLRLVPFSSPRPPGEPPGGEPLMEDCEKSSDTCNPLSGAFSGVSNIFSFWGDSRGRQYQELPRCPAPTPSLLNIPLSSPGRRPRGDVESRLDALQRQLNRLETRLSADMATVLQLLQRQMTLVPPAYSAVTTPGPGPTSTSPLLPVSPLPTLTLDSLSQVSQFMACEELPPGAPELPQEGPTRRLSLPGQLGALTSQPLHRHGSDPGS
From the text: 1. Experimental platform: electrophysiological manual patch-clamp system
2. Cell line: Chinese hamster ovary (CH—O) cell lines stably expressing hERG potassium ion channel
3. Experimental method: in CHO (Chinese Hamster Ovary) cells stably expressing hERG potassium channel, whole cell patch-clamp technique was used to record hERG potassium channel current at room temperature. The glass microelectrode was made of a glass electrode blank (BF150-86-10, Sutter) by a puller. The tip resistance after filling the liquid in the electrode was about 2-5 MQ. The glass microelectrode can be connected to the patch-clamp amplifier by inserting the glass microelectrode into an amplifier probe. The clamping voltage and data recording were controlled and recorded by the pClamp 10 software through a computer. The sampling frequency was 10 kHz, and the filtering frequency was 2 kHz. After the whole cell records were obtained, the cells were clamped at −80 mV, and the step voltage that induced the hERG potassium current (IhERG) was depolarized from −80 mV to +20 mV for 2 s, then repolarized to −50 mV, and returned to −80 mV after 1 s. This voltage stimulation was given every 10 s, and the administration process was started after the hERG potassium current was confirmed to be stable (at least 1 minute). The compound was administered for at least 1 minute at each test concentration, and at least 2 cells (n≥2) were tested at each concentration.
4. Data processing: Data analysis processing was carried out by using pClamp 10, GraphPad Prism 5 and Excel software. The inhibition degree of hERG potassium current (peak value of hERG tail current induced at −50 mV) at different compound concentrations was calculated by the following formula:
[formula] • where Inhibition % represents the percentage of inhibition of hERG potassium current by the compound, and I and Io represent the amplitude of hERG potassium current after and before the administration, respectively.
Compound IC50 was calculated using GraphPad Prism 5 software by fitting according to the following equation: […]
Among the equation, X represents the Log value of the tested concentration of the test sample, Y represents the inhibition percentage at the corresponding concentration, and Bottom and Top represent the minimum and maximum inhibition percentage, respectively.

cardiac myosin SII = target: T2, cardiac myosin SII (Bos taurus, UniProt Q9BE39); test: Inhibition of hydrolysis of ATP by cardiac myosin SII; assay type: biochemical; conditions: 100 μM compound
T2 construct: purchased Cytoskeleton #MYO3-A
T2 sequence (Q9BE39 whole entry): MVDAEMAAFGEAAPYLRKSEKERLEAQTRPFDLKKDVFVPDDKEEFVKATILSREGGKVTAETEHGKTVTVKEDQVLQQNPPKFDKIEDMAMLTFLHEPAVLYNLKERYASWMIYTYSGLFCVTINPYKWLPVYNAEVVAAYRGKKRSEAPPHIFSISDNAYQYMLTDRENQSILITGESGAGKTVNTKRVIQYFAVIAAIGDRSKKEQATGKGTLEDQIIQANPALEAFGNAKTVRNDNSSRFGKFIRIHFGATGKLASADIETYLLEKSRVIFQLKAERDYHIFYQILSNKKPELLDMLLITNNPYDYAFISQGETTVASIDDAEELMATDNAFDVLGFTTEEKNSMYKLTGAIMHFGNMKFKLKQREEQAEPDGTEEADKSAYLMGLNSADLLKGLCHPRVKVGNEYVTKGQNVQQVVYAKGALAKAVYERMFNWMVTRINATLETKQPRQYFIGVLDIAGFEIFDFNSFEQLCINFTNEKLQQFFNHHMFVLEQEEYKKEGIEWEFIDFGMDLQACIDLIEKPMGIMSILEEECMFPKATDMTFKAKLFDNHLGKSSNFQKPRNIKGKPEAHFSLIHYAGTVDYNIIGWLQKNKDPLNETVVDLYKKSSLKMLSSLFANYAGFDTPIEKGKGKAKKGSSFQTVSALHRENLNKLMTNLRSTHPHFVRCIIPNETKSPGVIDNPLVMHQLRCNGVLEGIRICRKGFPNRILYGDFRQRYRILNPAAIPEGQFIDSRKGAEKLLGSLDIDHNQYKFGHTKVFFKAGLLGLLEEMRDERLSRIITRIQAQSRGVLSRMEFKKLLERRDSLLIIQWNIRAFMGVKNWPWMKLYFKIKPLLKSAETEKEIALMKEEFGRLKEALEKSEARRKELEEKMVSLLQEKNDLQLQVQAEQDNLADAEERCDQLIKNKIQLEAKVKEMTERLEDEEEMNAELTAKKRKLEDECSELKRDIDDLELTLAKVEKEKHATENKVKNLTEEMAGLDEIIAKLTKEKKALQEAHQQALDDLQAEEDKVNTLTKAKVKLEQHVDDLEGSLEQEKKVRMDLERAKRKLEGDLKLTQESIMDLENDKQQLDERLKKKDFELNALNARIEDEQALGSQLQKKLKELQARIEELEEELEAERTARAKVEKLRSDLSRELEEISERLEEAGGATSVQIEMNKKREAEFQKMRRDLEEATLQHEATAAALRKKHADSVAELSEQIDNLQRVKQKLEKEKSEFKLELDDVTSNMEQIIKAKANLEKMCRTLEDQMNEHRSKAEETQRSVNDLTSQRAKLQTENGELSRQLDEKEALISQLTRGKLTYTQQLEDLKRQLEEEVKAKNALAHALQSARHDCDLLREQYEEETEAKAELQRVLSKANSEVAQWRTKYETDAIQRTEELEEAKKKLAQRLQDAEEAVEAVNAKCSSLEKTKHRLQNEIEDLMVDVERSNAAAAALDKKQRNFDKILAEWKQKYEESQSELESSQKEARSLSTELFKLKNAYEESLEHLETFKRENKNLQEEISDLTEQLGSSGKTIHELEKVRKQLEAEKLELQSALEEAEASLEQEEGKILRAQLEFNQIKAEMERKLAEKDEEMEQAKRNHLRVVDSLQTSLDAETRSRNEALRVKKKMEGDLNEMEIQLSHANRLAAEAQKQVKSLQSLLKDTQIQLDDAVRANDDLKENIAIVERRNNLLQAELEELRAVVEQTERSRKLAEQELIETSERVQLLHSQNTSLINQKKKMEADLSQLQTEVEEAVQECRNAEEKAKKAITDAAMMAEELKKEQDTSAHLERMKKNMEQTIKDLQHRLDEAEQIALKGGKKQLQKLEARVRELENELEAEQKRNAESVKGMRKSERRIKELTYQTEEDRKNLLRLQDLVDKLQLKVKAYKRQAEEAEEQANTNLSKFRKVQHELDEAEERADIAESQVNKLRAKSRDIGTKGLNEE
T2 sequence (P85100 whole entry partner): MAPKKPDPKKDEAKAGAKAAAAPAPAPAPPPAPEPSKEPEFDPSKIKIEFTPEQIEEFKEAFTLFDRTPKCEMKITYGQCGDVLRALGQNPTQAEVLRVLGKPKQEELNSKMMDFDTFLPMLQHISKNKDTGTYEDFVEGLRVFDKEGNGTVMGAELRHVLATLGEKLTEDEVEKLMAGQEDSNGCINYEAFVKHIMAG
T2 sequence (Q3SZE5 whole entry partner): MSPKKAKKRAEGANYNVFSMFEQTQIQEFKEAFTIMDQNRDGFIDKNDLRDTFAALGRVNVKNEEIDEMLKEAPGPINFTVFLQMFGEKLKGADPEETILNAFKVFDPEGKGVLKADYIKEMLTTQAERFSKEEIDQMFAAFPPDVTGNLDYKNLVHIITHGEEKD
Outline: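 Bovine cardiac myosin with preformed F-actin in 15 mM Tris-HCl pH 7.5, 10 mM KCl, 2 mM MgCl2, 0.1 mM EGTA; compounds at 100 μM final, ATP from 3 mM working solution, 2 h at 37 °C. Released Pi measured colorimetrically at 650 nm against a Pi standard curve; % inhibition vs. DMSO control.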

smooth muscle myosin S1 = target: T3, smooth muscle myosin S1 (Gallus gallus, UniProt P10587); test: Inhibition of hydrolysis of ATP by smooth muscle myosin S1 fragments; assay type: biochemical; conditions: 100 μM compound
T3 construct: purchased Cytoskeleton #CS-MYS05
T3 sequence (P10587 84-789 limits assumed): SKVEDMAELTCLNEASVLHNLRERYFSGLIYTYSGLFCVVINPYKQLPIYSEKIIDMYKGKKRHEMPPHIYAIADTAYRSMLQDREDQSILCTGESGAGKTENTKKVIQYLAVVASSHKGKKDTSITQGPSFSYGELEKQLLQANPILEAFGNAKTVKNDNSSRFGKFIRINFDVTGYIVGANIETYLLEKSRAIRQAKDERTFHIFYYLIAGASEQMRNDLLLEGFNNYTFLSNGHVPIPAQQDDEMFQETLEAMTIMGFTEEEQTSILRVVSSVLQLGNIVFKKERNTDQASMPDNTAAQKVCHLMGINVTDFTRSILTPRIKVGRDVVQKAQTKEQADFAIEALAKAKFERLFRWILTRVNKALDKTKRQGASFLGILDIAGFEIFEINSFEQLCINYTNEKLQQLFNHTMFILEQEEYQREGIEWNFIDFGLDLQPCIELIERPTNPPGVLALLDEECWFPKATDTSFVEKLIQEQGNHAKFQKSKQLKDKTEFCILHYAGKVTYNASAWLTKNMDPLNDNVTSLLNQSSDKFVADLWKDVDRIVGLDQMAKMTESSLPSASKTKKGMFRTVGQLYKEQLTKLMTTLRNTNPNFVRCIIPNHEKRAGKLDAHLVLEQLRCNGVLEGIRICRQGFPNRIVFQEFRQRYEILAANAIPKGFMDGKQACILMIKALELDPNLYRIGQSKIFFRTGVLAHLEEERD
T3 sequence (P02607 whole entry partner, the tested form may be a part): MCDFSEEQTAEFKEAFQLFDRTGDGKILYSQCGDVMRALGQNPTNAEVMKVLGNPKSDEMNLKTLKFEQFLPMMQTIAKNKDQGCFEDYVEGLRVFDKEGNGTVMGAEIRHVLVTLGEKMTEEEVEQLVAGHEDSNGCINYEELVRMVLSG
Outline: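 Smooth muscle myosin S1 fragment (0.7 mg/mL in PM12 buffer with 1 mM DTT) was mixed with compound and F-actin polymer prepared from cardiac actin, then 5 mM ATP working solution started the reaction at 37° C. for 20 min. Released Pi was measured with CytoPhos reagent at 650 nm against a standard curve, and inhibition was calculated relative to positive control wells.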

CYP1A2 = target: T4, CYP1A2 (Homo sapiens, UniProt P05177); test: CYP450 enzyme inhibition, human liver microsomes, CYP1A2; assay type: in vitro ADME
T4 construct: incubated with human liver microsomes and test compounds of different concentrations; from tissue; host or cells: human liver microsomes
T4 sequence (P05177 1-516): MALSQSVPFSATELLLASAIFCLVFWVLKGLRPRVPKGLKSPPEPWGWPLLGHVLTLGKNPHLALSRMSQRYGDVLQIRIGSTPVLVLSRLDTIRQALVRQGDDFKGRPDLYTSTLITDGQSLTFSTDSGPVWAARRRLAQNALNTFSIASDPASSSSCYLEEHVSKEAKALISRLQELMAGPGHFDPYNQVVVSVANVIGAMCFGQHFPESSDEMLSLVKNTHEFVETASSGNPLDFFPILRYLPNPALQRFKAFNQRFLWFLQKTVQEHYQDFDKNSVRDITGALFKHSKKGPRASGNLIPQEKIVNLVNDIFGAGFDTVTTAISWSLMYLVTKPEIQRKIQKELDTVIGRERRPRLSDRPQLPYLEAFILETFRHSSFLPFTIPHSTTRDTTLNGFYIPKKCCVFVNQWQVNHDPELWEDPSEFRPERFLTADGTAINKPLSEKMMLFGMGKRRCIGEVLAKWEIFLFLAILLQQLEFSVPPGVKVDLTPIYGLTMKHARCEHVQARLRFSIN
Protocol: (§1) The purpose of this study was to evaluate the effect of the test compound on the activity of five isoenzymes (CYP1A2, CYP2C9, CYP2C19, CYP2D6 and CYP3A4) of human liver microsomal cytochrome P450 (CYP) by using an in vitro testing system. The specific probe substrates of CYP450 isoenzymes were incubated with human liver microsomes and test compounds of different concentrations, and reduced nicotinamide adenine dinucleotide phosphate (NADPH) was added to initiate the reaction. After the completion of the reaction, the sample was treated and liquid chromatography-tandem mass spectrometry (LC-MS/MS) was used to quantitatively detect metabolites produced by specific substrates, changes in CYP enzyme activity were determined, and IC50 value was calculated to evaluate the inhibitory potential of the test compound on each CYP enzyme subtype.

[3] = Pharmacokinetic experiment in mice; assay type: in vivo; conditions: male, C57, po; mouse plasma, i.g. (10 mg/kg)
Protocol: (§2) 1. Experimental animals: Male C57 mice, 22-25 g, 6 mice/compound. Purchased from Chengdu Ddossy Experimental Animals Co., Ltd.
(§3) 2. Experimental design: On the day of the experiment, 12 C57 mice were randomly grouped according to their body weight. The animals were fasted with water available for 12 to 14 h one day before the administration and were fed 4 h after the administration.
Before and after the administration, 0.06 mL of blood was taken from the orbit of the animals under isoflurane anesthesia and placed in an EDTAK2 centrifuge tube. The blood was centrifuged at 5000 rpm and 4° C. for 10 min to collect the plasma. The blood collection time points for the intravenous group and intragastric administration group were: 0 m, 5 m, 15 min, 30 min, 1 h, 2 h, 4 h, 7 h and 24 h. Before analysis and detection, all samples were stored at −80° C., and a quantitative analysis of samples was performed using LC-MS/MS.

CYP3A4 = target: T5, CYP3A4 (Homo sapiens, UniProt P08684); test: CYP450 enzyme inhibition, human liver microsomes, CYP3A4; assay type: in vitro ADME
T5 construct: incubated with human liver microsomes and test compounds of different concentrations; from tissue; host or cells: human liver microsomes
Protocol: as §1

CYP2C19 = target: T6, CYP2C19 (Homo sapiens, UniProt P33261); test: CYP450 enzyme inhibition, human liver microsomes, CYP2C19; assay type: in vitro ADME
T6 construct: incubated with human liver microsomes and test compounds of different concentrations; from tissue; host or cells: human liver microsomes
Protocol: as §1

CYP2D6 = target: T7, CYP2D6 (Homo sapiens, UniProt P10635); test: CYP450 enzyme inhibition, human liver microsomes, CYP2D6; assay type: in vitro ADME
T7 construct: incubated with human liver microsomes and test compounds of different concentrations; from tissue; host or cells: human liver microsomes
Protocol: as §1

CYP2C9 = target: T8, CYP2C9 (Homo sapiens, UniProt P11712); test: CYP450 enzyme inhibition, human liver microsomes, CYP2C9; assay type: in vitro ADME
T8 construct: incubated with human liver microsomes and test compounds of different concentrations; from tissue; host or cells: human liver microsomes
T8 sequence (P11712 whole entry): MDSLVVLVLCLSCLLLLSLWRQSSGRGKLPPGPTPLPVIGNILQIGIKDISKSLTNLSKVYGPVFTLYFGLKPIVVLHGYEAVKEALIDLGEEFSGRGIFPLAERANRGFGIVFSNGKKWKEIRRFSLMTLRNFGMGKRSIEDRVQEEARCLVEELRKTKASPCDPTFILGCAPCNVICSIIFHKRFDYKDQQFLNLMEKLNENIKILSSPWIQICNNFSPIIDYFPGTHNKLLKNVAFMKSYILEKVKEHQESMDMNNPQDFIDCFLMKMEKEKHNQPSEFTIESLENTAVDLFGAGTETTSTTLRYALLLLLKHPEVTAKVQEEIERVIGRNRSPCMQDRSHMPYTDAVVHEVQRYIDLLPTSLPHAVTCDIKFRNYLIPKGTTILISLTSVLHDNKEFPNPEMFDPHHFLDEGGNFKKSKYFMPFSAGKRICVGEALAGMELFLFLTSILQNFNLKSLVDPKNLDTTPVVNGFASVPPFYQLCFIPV
Protocol: as §1

B10-Dmd-KO (Mdx) mice = test: PK/PD detection of mouse model with Dmd (Mdx) gene mutation, plasma CK; assay type: in vivo; conditions: 10 mpk single administration, oral
From the text: Experimental objective: Bl0-Dmd-KO (Mdx) mice are DMD function-deficient mice caused by frameshift mutations in the Dmd gene. […] This study has investigated the effects on CK and TNNI2 in the plasma of Mdx mice upon administration of compounds.
Experimental animal: B10-Dmd-KO (C57BL/10ScSnJGpt-Dmdem3Cd4/Gpt), male, 5-7 weeks old, weight 28-30 g, supplier. Gempharmatech Co., Ltd.;
• 1) Running training (D-5): Mdx mice underwent running training in batches. The training parameters were set as three time periods, i.e., the initial speed of 4 m/min for 2 min, then 8 m/min for 8 min, and finally 12 m/min for 30 min, a total of 40 min; • 2) Gripping strength test (D-2): each round was measured three times, and three rounds were performed; • 3) Grouping (DO): the animals were anesthetized by inhalation of isoflurane (concentration: 5%, gas flow rate: 1 L/min), and then a capillary tube was used to collect blood (about 150 μL) via orbital venous sinus into a 0.6 mL centrifuge tube containing EDTA anticoagulant, the plasma wad separated, and the CK value was detected, which was used as the basic value for grouping; • 4) Administration, grasping, and blood collection (D1): The compounds were dissolved in the vehicle 5% DMA+5% HS-15+90% Saline, then orally administered to the mice, and then the grip strength test was conducted (three tests per round for three rounds). […] A capillary tube was used to collect blood (>300 μL) via orbital venous sinus into a 0.6 mL centrifuge tube containing EDTA anticoagulant, and then the animals were euthanized to collect the tibialis anterior muscle (left leg), soleus muscle (both legs) and cardiac muscle, which were weighed and recorded, placed in a homogenization tube and quickly frozen in liquid nitrogen, then stored at −80° C.
Sample processing: After the whole blood anticoagulated with EDTA was centrifuged at 3000 rpm and 4° C. for 10 min, the […] was collected and subpackaged. The separated […] was subjected to a biochemical analyzer (Fully automatic biochemical analyzer Roche C311) to detect the CK value and TNN12 value (Mouse TNNI2 Elisa Kit, ABBEXA, E2207370Y); The […] concentration of the compound and the drug concentration in tibialis anterior muscle, soleus muscle and cardiac muscle were measured by LC/MS instrument.

[4] = Pharmacokinetic experiment in mouse muscle tissue (tibialis anterior / plasma); assay type: in vivo, C57 mice; conditions: male, C57, tibialis anterior muscle / plasma, oral, intragastric 10 mg/kg, read-out: Ratio = Tibialis anterior Conc./Plasma Conc.
Protocol: as §2
as §3, with “experiment,” for “experiment, 12”, “administration. Administration was performed as per Table 10.1.” for “administration.”

[5] = inhibition of hydrolysis of ATP, class symbols, read-out: Rabbit skeletal muscle myosin (IC50)
[6] = read-out: IC50 for inhibition of hydrolysis of ATP by rabbit skeletal muscle myosin

SMILES	IC50 [1, 5] [nM]	IC50 [1, 6] [nM]	inhibition at 100 µM (cardiac myosin SII) [%]	inhibition at 100 µM (smooth muscle myosin S1) [%]	IC50 [2] [µM]	other results
O=c1ccc(-c2cnc(C3CC3)nc2)nn1Cc1ccc2c(c1)CC2 [Compound 92]	< 2500	200	17	–	> 40	–
O=C1CCc2ccc(Cn3nc(-c4cnc(C5CC5)nc4)ccc3=O)cc21 [Compound 157]	< 2500	–	10	-3	> 40	–
O=C1CCc2ccc(Cn3nc(-c4cnc(Oc5cncc(F)c5)nc4)ccc3=O)cc21 [Compound 124]	< 2500	–	4	-12	> 40	–
O=c1ccc(-c2cnc(OCC(F)(F)F)nc2)nn1Cc1ccc2[nH]ncc2c1 [Comparative Example 1, reference compound]	–	–	–	–	2.5	IC50 (CYP1A2): > 30 µM; AUC(0-t) [3]: 2210 ng·h/mL; Cmax [3]: 267 ng/mL; half-life [3]: 1130 min; IC50 (CYP3A4): > 30 µM; IC50 (CYP2C19): 1.85 µM; IC50 (CYP2D6): 8.81 µM; IC50 (CYP2C9): 4.44 µM
O=c1ccc(-c2cnc(OCC(F)(F)F)nc2)nn1Cc1ccc2c(c1)CC2 [Compound 56]	< 2500	340	–	–	–	Inhibition rate of CK values (sampled 24 h after (last) dose) (B10-Dmd-KO (Mdx) mice): 88.4%; Kp at 6 h ([4]; 6 h): 175; Kp at 24 h ([4]; 24 h): 316
